# pIC50: −log10 of the molar value. Structures can show the parent of a compound that is named as a salt.
# Target: Met kinase (Homo sapiens, UniProt P08581)
# Assay: Met kinase inhibition (cell assay)
# Type: cell-based
# Met kinase, sequence (P08581 25-1390): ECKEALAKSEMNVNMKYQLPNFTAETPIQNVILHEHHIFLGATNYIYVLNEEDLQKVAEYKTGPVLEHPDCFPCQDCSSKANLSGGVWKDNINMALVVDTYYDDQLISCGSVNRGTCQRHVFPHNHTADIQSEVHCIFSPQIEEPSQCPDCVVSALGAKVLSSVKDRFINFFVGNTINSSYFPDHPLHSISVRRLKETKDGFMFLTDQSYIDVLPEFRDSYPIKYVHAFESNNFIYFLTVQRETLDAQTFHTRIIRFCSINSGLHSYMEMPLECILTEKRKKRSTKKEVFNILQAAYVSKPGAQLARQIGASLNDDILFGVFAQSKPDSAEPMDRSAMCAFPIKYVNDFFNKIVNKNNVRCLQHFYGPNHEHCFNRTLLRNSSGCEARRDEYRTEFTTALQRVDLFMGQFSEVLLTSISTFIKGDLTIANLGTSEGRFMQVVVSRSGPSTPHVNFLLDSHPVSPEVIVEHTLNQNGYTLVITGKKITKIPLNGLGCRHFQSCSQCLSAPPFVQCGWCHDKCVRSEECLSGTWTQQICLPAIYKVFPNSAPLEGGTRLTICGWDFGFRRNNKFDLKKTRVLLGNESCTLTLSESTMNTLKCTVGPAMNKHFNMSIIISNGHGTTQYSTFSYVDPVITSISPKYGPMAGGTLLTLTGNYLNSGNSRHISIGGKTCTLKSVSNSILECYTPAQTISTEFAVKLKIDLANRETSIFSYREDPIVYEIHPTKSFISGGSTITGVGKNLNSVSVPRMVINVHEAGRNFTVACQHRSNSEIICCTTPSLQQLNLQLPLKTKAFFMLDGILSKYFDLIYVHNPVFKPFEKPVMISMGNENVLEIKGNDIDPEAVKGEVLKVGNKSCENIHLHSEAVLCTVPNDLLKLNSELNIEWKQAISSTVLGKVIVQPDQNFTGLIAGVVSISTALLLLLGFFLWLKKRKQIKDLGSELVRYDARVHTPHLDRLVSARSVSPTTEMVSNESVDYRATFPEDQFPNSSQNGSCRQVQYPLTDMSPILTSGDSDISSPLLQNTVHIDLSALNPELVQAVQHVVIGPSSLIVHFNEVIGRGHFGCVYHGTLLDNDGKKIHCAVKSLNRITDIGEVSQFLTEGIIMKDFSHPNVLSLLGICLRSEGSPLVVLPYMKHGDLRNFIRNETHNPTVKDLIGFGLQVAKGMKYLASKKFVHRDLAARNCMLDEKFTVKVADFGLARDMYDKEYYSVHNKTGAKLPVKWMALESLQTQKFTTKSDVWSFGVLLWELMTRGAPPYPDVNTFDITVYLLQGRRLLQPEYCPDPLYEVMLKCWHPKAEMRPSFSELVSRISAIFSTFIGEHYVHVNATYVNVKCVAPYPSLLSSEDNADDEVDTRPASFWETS
row,Structure (SMILES),pIC50
1,"COc1ccc2oc(=O)n(Cc3cccc(NC(=O)OCCCN4CCN(C)CC4)c3)c2c1 [Compound A1, 3-(4-methylpiperazin-1-yl)propyl [3-(5-methoxy-2-oxobenzooxazol-3-ylmethyl)phenyl]carbamate]",6.00 to 8.00
2,CN1CCN(CCCOC(=O)Nc2cccc(Cn3c(=O)oc4ccc(Cl)cc43)c2)CC1 [Compound A2],6.00 to 8.00
3,"CN1CCN(CCCOC(=O)Nc2cccc(Cn3c(=O)oc4ccc(C(=O)N(C)C)cc43)c2)CC1 [Compound A3, 3-(4-Methylpiperazin-1-yl)propyl [3-(5-dimethylcarbamoyl-2-oxobenzoxazol-3-ylmethyl)phenyl]carbamate]",6.00 to 8.00
4,"CN(C)C(=O)c1ccc2oc(=O)n(Cc3cccc(NC(=O)OCCCN4CCNCC4)c3)c2c1 [Compound A4, 3-Piperazin-1-ylpropyl [3-(5-dimethylcarbamoyl-2-oxobenzoxazol-3-ylmethyl)phenyl]carbamate]",6.00 to 8.00
5,"CCCNC(=O)c1ccc2oc(=O)n(Cc3cccc(NC(=O)OCCCN4CCN(C)CC4)c3)c2c1 [Compound A5, 3-(4-Methylpiperazin-1-yl)propyl [3-(5-propylcarbamoyl-2-oxobenzoxazol-3-ylmethyl)phenyl]carbamate]",6.00 to 8.00
6,"CN1CCN(CCCOC(=O)Nc2cccc(Cn3c(=O)oc4cc(Cl)ccc43)c2)CC1 [Compound A6, 3-(4-Methylpiperazin-1-yl)propyl [3-(6-chloro-2-oxobenzoxazol-3-ylmethyl)phenyl]carbamate]",6.00 to 8.00
7,"Cc1ccc2oc(=O)n(Cc3cccc(NC(=O)OCCCN4CCN(C)CC4)c3)c2c1 [Compound A7, 3-(4-Methylpiperazin-1-yl)propyl [3-(5-methyl-2-oxobenzoxazol-3-ylmethyl)phenyl]carbamate]",6.00 to 8.00
8,"CC(=O)c1ccc2oc(=O)n(Cc3cccc(NC(=O)OCCCN4CCN(C)CC4)c3)c2c1 [Compound A8, 3-(4-Methylpiperazin-1-yl)propyl [3-(5-acetyl-2-oxobenzoxazol-3-ylmethyl)phenyl]carbamate]",6.00 to 8.00
9,"CC(O)c1ccc2c(c1)oc(=O)n2Cc1cccc(NC(=O)OCCCN2CCN(C)CC2)c1 (stereo not drawn) [Compound A9, 3-(4-methylpiperazin-1-yl)propyl {3-[6-(1-hydroxyethyl)-2-oxobenzoxazol-3-ylmethyl]phenyl}carbamate]",6.00 to 8.00
10,"CCCNC(=O)c1ccc2oc(=O)n(Cc3cccc(NC(=O)OCCCN4CCNCC4)c3)c2c1 [Compound A10, 3-Piperazin-1-ylpropyl [3-(5-propylcarbamoyl-2-oxobenzoxazol-3-ylmethyl)phenyl]carbamate]",6.00 to 8.00
11,"CN(C)CCCOC(=O)Nc1cccc(Cn2c(=O)oc3cccnc32)c1 [Compound A11, 3-Dimethylaminopropyl [3-(2-oxooxazolo[4,5-b]pyridin-3-ylmethyl)phenyl]carbamate]",6.00 to 8.00
12,"CN(C)CCCOC(=O)Nc1cccc(Cn2c(=O)oc3ccc(C(=O)N(C)C)cc32)c1 [Compound A12, 3-Dimethylaminopropyl [3-(5-dimethylcarbamoyl-2-oxobenzoxazol-3-ylmethyl)phenyl]carbamate]",6.00 to 8.00
13,"CCCNC(=O)c1ccc2oc(=O)n(Cc3cccc(NC(=O)OCCCN(C)C)c3)c2c1 [Compound A13, 3-Dimethylaminopropyl [3-(5-propylcarbamoyl-2-oxobenzoxazol-3-ylmethyl)phenyl]carbamate]",6.00 to 8.00
14,"COC(=O)c1ccc2c(c1)oc(=O)n2Cc1cccc(NC(=O)OCCCN(C)C)c1 [Compound A14, 3-Dimethylaminopropyl [3-(6-methoxycarbonyl-2-oxobenzoxazol-3-ylmethyl)phenyl]carbamate]",6.00 to 8.00
15,"COC(=O)c1ccc2oc(=O)n(Cc3cccc(NC(=O)OCCCN(C)C)c3)c2c1 [Compound A15, 3-Dimethylaminopropyl [3-(5-methoxycarbonyl-2-oxobenzoxazol-3-ylmethyl)phenyl]carbamate]",6.00 to 8.00
16,"CN(C)CCCOC(=O)Nc1cccc(Cn2c(=O)oc3ccccc32)c1 [Compound A16, 3-Dimethylaminopropyl [3-(2-oxobenzoxazol-3-ylmethyl)phenyl]carbamate]",6.00 to 8.00
17,"CN1CCN(CCOC(=O)Nc2cccc(Cn3c(=O)oc4ccccc43)c2)CC1 [Compound A17, 2-(4-Methylpiperazin-1-yl)ethyl [3-(2-oxobenzoxazol-3-ylmethyl)phenyl]carbamate]",6.00 to 8.00
18,"CN1CCN(CCCOC(=O)Nc2cccc(Cn3c(=O)oc4ccccc43)c2)CC1 [Compound A18, 3-(4-Methylpiperazin-1-yl)propyl [3-(2-oxobenzoxazol-3-ylmethyl)phenyl]carbamate]",6.00 to 8.00
19,"CN1CCN(CCCOC(=O)Nc2cccc(Cn3c(=O)oc4cc(F)c(F)cc43)c2)CC1 [Compound A19, 3-(4-Methylpiperazin-1-yl)propyl [3-(5,6-difluoro-2-oxobenzoxazol-3-ylmethyl)phenyl]carbamate]",6.00 to 8.00
20,"COc1ccc2c(c1)oc(=O)n2Cc1cccc(NC(=O)OCCCN2CCN(C)CC2)c1 [Compound A20, 3-(4-Methylpiperazin-1-yl)propyl [3-(6-methoxy-2-oxobenzoxazol-3-ylmethyl)phenyl]carbamate]",6.00 to 8.00
21,"Cc1ccc2c(c1)oc(=O)n2Cc1cccc(NC(=O)OCCCN2CCN(C)CC2)c1 [Compound A21, 3-(4-Methylpiperazin-1-yl)propyl [3-(6-methyl-2-oxobenzoxazol-3-ylmethyl)phenyl]carbamate]",6.00 to 8.00

row,Structure (SMILES),pIC50
1,"CC(=O)c1ccc2c(c1)oc(=O)n2Cc1cccc(NC(=O)OCCCN2CCN(C)CC2)c1 [Compound A22, 3-(4-Methylpiperazin-1-yl)propyl [3-(6-acetyl-2-oxobenzoxazol-3-ylmethyl)phenyl]carbamate]",6.00 to 8.00
2,"CCOC(=O)Nc1cccc(Cn2c(=O)oc3ccc(C(=O)NCCN(C)C)cc32)c1 [Compound A30, Ethyl {3-[5-(2-dimethylaminoethylcarbamoyl)-2-oxobenzoxazol-3-ylmethyl]phenyl}carbamate]",6.00 to 8.00
3,"CCOC(=O)Nc1cccc(Cn2c(=O)oc3ccc(C(=O)NCCCN(C)C)cc32)c1 [Compound A31, Ethyl {3-[5-(3-dimethylaminopropylcarbamoyl)-2-oxobenzoxazol-3-ylmethyl]phenyl}carbamate]",6.00 to 8.00
4,"CCOC(=O)Nc1cccc(C(C)n2c(=O)oc3ccc(C(=O)NCCCCN(C)C)cc32)c1 (stereo not drawn) [Compound A32, Ethyl (3-{1-[5-(4-dimethylaminobutylcarbamoy1)-2-oxobenzoxazol-3-yl]ethyl}phenyl)carbamate]",6.00 to 8.00
5,"CCOC(=O)Nc1cccc(C(C)n2c(=O)oc3ccc(C(=O)NCCN(C)C)cc32)c1 (stereo not drawn) [Compound A33, Ethyl (3-{1-[5-(2-dimethylaminoethylcarbamoy1)-2-oxobenzoxazol-3-yl]ethyl}phenyl)carbamate]",6.00 to 8.00
6,"CN(C)CCCCNC(=O)c1ccc2oc(=O)n(Cc3ccc4[nH]c(=O)[nH]c4c3)c2c1 [Compound A34, N-(4-Dimethylaminobutyl)-2-oxo-3-(2-oxo-2,3-dihydro-1H-benzimidazol-5-ylmethyl)-2,3-dihydrobenzoxazole-5-carboxamide]",6.00 to 8.00
7,"CN(C)CCNC(=O)c1ccc2oc(=O)n(Cc3ccc4[nH]c(=O)[nH]c4c3)c2c1 [Compound A35, N-(2-dimethylaminoethyl)-2-oxo-3-(2-oxo-2,3-dihydro-1H-benzoimidazol-5-ylmethyl)-2,3-dihydrobenzoxazole-5-carboxamide]",6.00 to 8.00
8,"CCOC(=O)Nc1cccc(C(C)n2c(=O)oc3ccc(C(=O)NCCCN(C)C)cc32)c1 (stereo not drawn) [Compound A36, Ethyl (3-{1-[5-(3-dimethylaminopropylcarbamoy1)-2-oxobenzoxazol-3-yl]ethyl}phenyl)carbamate]",6.00 to 8.00
9,"CCOC(=O)Nc1cccc(Cn2c(=O)oc3cc(C(=O)OC)ccc32)c1 [Compound A37, Methyl 3-(3-ethoxycarbonylaminobenzyl)-2-oxo-2,3-dihydrobenzoxazole-6-carboxylate]",6.00 to 8.00
10,"COC(=O)c1ccc2oc(=O)n(Cc3cccc(-c4ncc(OCCCN(C)C)cn4)c3)c2c1 [Compound A64, methyl 3-{3-[5-(3-dimethylaminopropoxy)pyrimidin-2-yl]-benzyl}-2-oxo-2,3-dihydrobenzoxazole-5-carboxylate]",6.00 to 8.00
11,CN(C)CCCOc1cnc(-c2cccc(Cn3c(=O)oc4ccc(C#N)cc43)c2)nc1 [Compound A66],6.00 to 8.00
12,CC(=O)c1ccc2oc(=O)n(Cc3cccc(-c4ncc(OCCCN(C)C)cn4)c3)c2c1 [Compound A67],6.00 to 8.00
13,CN(C)CCCOc1cnc(-c2cccc(Cn3c(=O)oc4cc([N+](=O)[O-])ccc43)c2)nc1 [Compound A76],6.00 to 8.00
14,Cc1ccc2oc(=O)n(Cc3cccc(-c4ncc(OCCN5CCOCC5)cn4)c3)c2n1 [Compound A79],6.00 to 8.00
15,CCS(=O)(=O)c1ccc2oc(=O)n(Cc3cccc(-c4ncc(OCCCN(C)C)cn4)c3)c2c1 [Compound A82],6.00 to 8.00
16,Cc1ccc2oc(=O)n(Cc3cccc(-c4ncc(OCC5CCNCC5)cn4)c3)c2n1 [Compound A87],6.00 to 8.00
17,CN(C)CCCOc1cnc(-c2cccc(Cn3c(=O)oc4cc(S(=O)(=O)CCO)ccc43)c2)nc1 [Compound A92],5.00 to 6.00
18,CN(C)CCCOc1cnc(-c2cccc(Cn3c(=O)oc4cc(F)c(F)cc43)c2)nc1 [Compound A93],5.00 to 6.00
19,CN(C)CCCOc1cnc(-c2cccc(Cn3c(=O)oc4ncccc43)c2)nc1 [Compound A95],5.00 to 6.00
20,CN(C)CCCOc1cnc(-c2cccc(Cn3c(=O)oc4cc5ccccc5cc43)c2)nc1 [Compound A96],6.00 to 8.00
21,O=c1oc2c3ncccc3ccc2n1Cc1cccc(-c2ncc(OCCN3CCOCC3)cn2)c1 [Compound A103],5.00 to 6.00

# Tested on: not given
# Assay: not given
row,Structure (SMILES),melting point
1,"CC(c1cccc(NC(=O)OCCN2CCN(C)CC2)c1)n1c(=O)oc2cc(F)c(F)cc21 (stereo not drawn) (as salt: hydrochloride) [Compound A27, 2-(4-methylpiperazin-1-yl)ethyl {3-[1-(5,6-difluoro-2-oxobenzoxazol-3-yl)ethyl]phenyl}carbamate]",236 to 238 °C (dec.)
2,"CN(C)CCNC(=O)C(=O)Nc1cccc(Cn2c(=O)oc3cc(Cl)ccc32)c1 (as salt: hydrochloride) [Compound A141, N-[3-(6-chloro-2-oxobenzoxazol-3-ylmethyl)phenyl]-N′-(2-dimethylaminoethyl)oxalamide]",273 °C
3,"COC(=O)c1ccc2oc(=O)n(Cc3cccc(-c4ncc(OCCCN(C)C)cn4)c3)c2c1 [Compound A64, methyl 3-{3-[5-(3-dimethylaminopropoxy)pyrimidin-2-yl]-benzyl}-2-oxo-2,3-dihydrobenzoxazole-5-carboxylate]",125 °C
